{
  "source": "patent US20240109842A1",
  "about": "“ACRYLAMIDE COMPOUNDS” (OTSUKA PHARMACEUTICAL CO., LTD., priority 2019, published 2024)",
  "key": {"[1]": {"test_system": "immortalized megakaryocyte cell line", "assay": "Test Example 2: platelet production, shake culturing, with various aryl hydrocarbon receptor antagonists", "settings": "otherwise as Test Example 1"}, "[2]": {"test_system": "immortalized megakaryocyte cell line", "assay": "Test Example 1: platelet production, shake culturing", "format": "cell-based", "settings": "compound 10 μM added at Day 3", "experimental": "The immortalized megakaryocyte cell line obtained according to the method described in WO 2016/204256 was washed twice with D-PBS(−) and then cultured in medium not containing doxycycline to terminate forced expression (cultured under conditions where gene expression is OFF). Shake culturing at 100 rpm was performed in the following medium after the cells were seeded in a 125-mL polycarbonate Erlenmeyer flask (Corning #431143) at 25 mL/flask and a seeding density of 1×10^5 cells/mL. Culturing conditions were 37° C. and 5% CO2. The medium was obtained by adding the following components to IMDM serving as the basal medium (concentrations indicate final concentrations). • FBS 15% • L-Glutamine 2 mM • ITS 100-fold dilution • MTG 450 μM • Ascorbic acid 50 μg/mL • SCF 50 ng/mL • TA-316 0.1 μg/mL • ADAM inhibitor 15 μM • ROCK inhibitor 0.5 μM […] After culturing for 6 days in total, the number of platelets was measured. The measurement method was as follows. The same operation was performed for control. At 6 days after initiation of the culturing under conditions where gene expression was OFF, a part of the culture supernatant was collected, and suspended with the following antibody and Flow-Count Fluorospheres (Beckman Coulter #7547053) to perform staining. • APC-labeled anti-CD41 antibody (BioLegend #303710) • eFluor 450-labeled anti-CD42a antibody (eBioscience #48-0428-42) • PE-labeled anti-CD42b antibody (BioLegend #303906) At 30 minutes after staining, number of platelets (CD41, CD42a and CD42b-positive cells) was counted by using FACSVerse (manufactured by BD Japan) with Flow-Count Fluorospheres. The number of platelets was given as a percentage of the control."}},
  "data": [
    {"smiles": "CCOc1ccccc1CCNC(=O)/C=C/c1c[nH]c2c(OC)cccc12", "note": "[Example 61]", "values": [
      {"measurement": "Amount of platelet production (vs. Control)", "setting": "[1]; with aryl hydrocarbon receptor antagonist Compound A1 0.75 μM", "value": "++ (not less than 6.5 times)"},
      {"measurement": "Amount of platelet production (vs. Control)", "setting": "[1]; with aryl hydrocarbon receptor antagonist Compound A2 0.1 μM", "value": "++ (not less than 6.5 times)"},
      {"measurement": "Amount of platelet production (vs. Control)", "setting": "[1]; with aryl hydrocarbon receptor antagonist Compound A3 10 μM", "value": "++ (not less than 6.5 times)"},
      {"measurement": "Amount of platelet production (vs. Control)", "setting": "[1]; with aryl hydrocarbon receptor antagonist Compound A4 1 μM", "value": "++ (not less than 6.5 times)"},
      {"measurement": "Amount of platelet production (vs. Control)", "setting": "[1]; with aryl hydrocarbon receptor antagonist Compound A7 0.1 μM", "value": "++ (not less than 6.5 times)"},
      {"measurement": "Amount of platelet production (vs. Control)", "setting": "[1]; with aryl hydrocarbon receptor antagonist Compound A8 0.1 μM", "value": "++ (not less than 6.5 times)"},
      {"measurement": "fold induction at 10 µM", "setting": "[2]; Platelet, 144 h, DMSO added at cell seeding (no AhR antagonist), platelets (CD41, CD42a, CD42b-positive) counted after 6 days, read-out: Amount of platelet production (vs. Control)", "value": "1.5 to 6.5"},
      {"measurement": "Amount of platelet production (vs. Control)", "setting": "[2]; aryl hydrocarbon receptor antagonist Compound A5 0.1 μM added at cell seeding, counted after 6 days", "value": "++ (not less than 6.5 times)"}
    ]}
  ]
}
